Assay results taken from PubChem BioAssay AID2060494 (Molecular Pharmacology Branch, DTP, NCI, 2025).
Values joined by “and” are separate entries in the source; they are usually repeats but may differ in a detail not shown here. Equal entries are not always repeated.

Tested on: 435261-313-R-J1-PDC complex spheroid viability
Test: Anticancer human tumor 435261-313-R-J1-PDC patient-derived colon adenocarcinoma cell line growth inhibition [GQUAD]
Conditions: for viability, T/C: stronger effect = lower value
Source text: DNA G-quadruplex Stabilizer Agents in Combinations in Complex Spheroids
A high-throughput screen of multi-cell type tumor spheroids was designed to identify active combinations of DNA G-quadruplex stabilizer agents and targeted small molecules. Complex spheroids include a stromal component modeled by human endothelial cells (HUVEC) and fibroblasts modeled by human mesenchymal stem cells (MSCs). The concentration ranges selected for each drug and investigational agent were based upon clinically achievable concentrations if the clinical Cmax of the agent was known.
Compounds. The drugs and investigational agents: pidnarulex (CX-5461; NSC782164), APTO-253 (NSC789042), BRACO-19 (NSC847499), peposertib (NSC802822), ceralasertib (NSC780249), elimusertib (NSC800525), camonsertib (NSC841442), AZD-1390 (NSC803789), olaparib (NSC753686), talazoparib (NSC767125), ART-558 (NSC835418), sotorasib (NSC818433), MRTX-1133 (NSC836407), SN-38 (NSC673596), topotecan (NSC609699), etoposide (NSC141540), doxorubicin (NSC123127), gemcitabine (NSC613327), 5-fluorouracil (NSC19893), paclitaxel (NSC125973), vemurafenib (NSC761431), panobinostat (NSC761190), R-306465 (JNJ-16241199; NSC773264), adavosertib (NSC754352), TP-3654 (NSC805149), carboplatin (NSC241240), KSQ-4279 (NSC840948), and staurosporine (NSC755774) were obtained from the National Cancer Institute (NCI) Developmental Therapeutics Program Chemical Repository (34). The FDA-approved anticancer drug set is available from the NCI Developmental Therapeutics Program. […] The stock solutions were prepared in dimethyl sulfoxide (DMSO, Sigma-Aldrich, St. Louis, MO, cat. D2650) at 800-fold the tested concentration and stored at -70 degrees C prior to their use. All drugs and investigational agents were tested over a range starting from a high concentration at or near the clinical Cmax and decreasing in half-log increments. If the clinical Cmax for an agent had not been determined, the highest concentration tested was 10 microM.
2.3 Cell Culture. All cells were maintained in an incubator at 37 degrees C and 5% CO2 with 95% humidity. The PDC lines were cultured according to standard operating procedures established by the NCI PDMR. All PDCs were thawed and cultured in Matrigel-coated flasks prepared with a working solution of 1X Ham's F-12 nutrient mix, without supplementation (Invitrogen, cat. 11765054), 100 U/mL penicillin-streptomycin (Invitrogen, cat. 15140122), and 2.5% Matrigel (Corning Inc., cat. 354248) for the first three passages. The 857933-349-R-J2-PDC line was cultured in 6C/Colon 1B media, which includes advanced DMEM/F-12 (Thermo Fisher Scientific, cat. 12634028), 10 mM HEPES (Thermo Fisher Scientific, cat. 15630080), 1X GlutaMAX supplement (Thermo Fisher Scientific, cat. 35050061), 0.1 mg/mL primocin (InvivoGen, cat. ant-pm-2), 10% defined fetal bovine serum, heat inactivated (HyClone Laboratories Inc., cat. SH30070.03HI), 50% L-WRN conditioned media (ATCC, cat. CRL-3276), 1.25 mM N-Acetyl-L-cysteine (Sigma-Aldrich, cat. A9165), 10 mM nicotinamide (Sigma-Aldrich, cat. N0636), 1X B-27 supplement (Thermo Fisher Scientific, cat. 17504044), 1X N-2 supplement (Thermo Fisher Scientific, cat. 17502048), 10 microM Y-27632 dihydrochloride (Tocris Bioscience, cat. 1254), and 50 ng/mL human EGF recombinant protein (Thermo Fisher Scientific, cat. PHG0311). The 485176-168-R4-J1-PDC line was cultured in Panc media, which includes all 6C/Colon 1B media components plus 100 ng/mL human FGF-10 (Thermo Fisher Scientific, cat. 100-26), 500 nM SB-431542 (Selleckchem, cat. S1067), and gastrin (Tocris, cat. 3006).
[…]
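Note: spheroids exposed to the agents for seven days before readout.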
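Throughout, for viability, T/C: percent of vehicle control viability with DMSO wells as 100%.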

Q: How did the viability, T/C (compound 0.0316 µM) turn out when CCCS(=O)(=O)Nc1ccc(F)c(C(=O)c2c[nH]c3ncc(-c4ccc(Cl)cc4)cc23)c1F was run?
A: The viability, T/C was 105% and 95%.

Q: What about the viability, T/C (compound 0.1 µM) of the same compound?
A: Its viability, T/C is 69.6% and 103%.

Q: And the viability, T/C (compound 0.316 µM)?
A: The viability, T/C was 118% and 139%.

Q: And the viability, T/C (compound 1 µM)?
A: The viability, T/C was 82.9% and 104%.

Q: And the viability, T/C (compound 3.16 µM)?
A: The viability, T/C was 63.1% and 88.8%.

Q: And the viability, T/C (compound 10 µM)?
A: Its viability, T/C is 14.7% and 13.4%.

Q: And the IC50 (curve of compound)?
A: Its IC50 is 4.25 µM and 5.71 µM.

Q: What does the source list for CC1COCCN1c1cc(-c2ccnn2C)c2ccnc(-c3ccn[nH]3)c2n1 (stereo not drawn)?
A: viability, T/C (compound 0.0316 µM): 67.8% and 99.2%; viability, T/C (compound 0.1 µM): 53.6% and 47.4%; viability, T/C (compound 0.316 µM): 52.6% and 55.7%; viability, T/C (compound 1 µM): 38.4% and 36.9%; viability, T/C (compound 3.16 µM): 37.2% and 32.5%; viability, T/C (compound 10 µM): 20.3% and 19.5%; IC50 (curve of compound): 0.321 µM and 0.203 µM

Q: Which IC50 (curve of first compound, second compound 0.0316 µM) does the source give for CC1COCCN1c1cc(C2(S(C)(=N)=O)CC2)nc(-c2ccnc3[nH]ccc23)n1 (stereo not drawn) + Cc1cnc(CNC(=O)c2c(=O)c3ccc(N4CCCN(C)CC4)nc3n3c2sc2ccccc23)cn1 here?
A: Its IC50 is 3.84 µM.

Q: What about the IC50 (curve of first compound, second compound 0.1 µM) of the same compound?
A: The IC50 was 3.2 µM.

Q: What about the IC50 (curve of first compound, second compound 0.316 µM) of the same compound?
A: The IC50 was 2.35 µM.

Q: And the IC50 (curve of first compound, second compound 1 µM)?
A: The IC50 was under 0.0316 µM.

Q: And the IC50 (curve of first compound, second compound 3.16 µM)?
A: Its IC50 is under 0.0316 µM.

Q: And the IC50 (curve of first compound, second compound 10 µM)?
A: The IC50 was under 0.0316 µM.

Q: And the viability, T/C (second compound 0.0316 µM, first compound 0.0316 µM)?
A: The viability, T/C was 52.9%.

Q: What about the viability, T/C (second compound 0.0316 µM, first compound 0.1 µM) of the same compound?
A: The viability, T/C was 57.6%.

Q: What about the viability, T/C (second compound 0.0316 µM, first compound 0.316 µM) of the same compound?
A: The viability, T/C was 66.8%.

Q: What about the viability, T/C (second compound 0.0316 µM, first compound 1 µM) of the same compound?
A: Its viability, T/C is 53.9%.

Q: What about the viability, T/C (second compound 0.0316 µM, first compound 3.16 µM) of the same compound?
A: Its viability, T/C is 49.2%.

Q: What about the viability, T/C (second compound 0.0316 µM, first compound 10 µM) of the same compound?
A: Its viability, T/C is 42.7%.

Q: And the viability, T/C (second compound 0.1 µM, first compound 0.0316 µM)?
A: Its viability, T/C is 41.4%.

Q: And the viability, T/C (second compound 0.1 µM, first compound 0.1 µM)?
A: The viability, T/C was 66.6%.

Q: And the viability, T/C (second compound 0.1 µM, first compound 0.316 µM)?
A: The viability, T/C was 46.2%.

Q: And the viability, T/C (second compound 0.1 µM, first compound 1 µM)?
A: Its viability, T/C is 45.9%.

Q: What about the viability, T/C (second compound 0.1 µM, first compound 3.16 µM) of the same compound?
A: Its viability, T/C is 50.6%.

Q: And the viability, T/C (second compound 0.1 µM, first compound 10 µM)?
A: The viability, T/C was 38.8%.

Q: What about the viability, T/C (second compound 0.316 µM, first compound 0.0316 µM) of the same compound?
A: Its viability, T/C is 53.5%.

Q: And the viability, T/C (second compound 0.316 µM, first compound 0.1 µM)?
A: Its viability, T/C is 55.8%.

Q: And the viability, T/C (second compound 0.316 µM, first compound 0.316 µM)?
A: The viability, T/C was 60.6%.

Q: And the viability, T/C (second compound 0.316 µM, first compound 1 µM)?
A: The viability, T/C was 55.1%.

Q: What about the viability, T/C (second compound 0.316 µM, first compound 3.16 µM) of the same compound?
A: Its viability, T/C is 44.9%.

Q: What about the viability, T/C (second compound 0.316 µM, first compound 10 µM) of the same compound?
A: Its viability, T/C is 40.5%.

Q: What about the viability, T/C (second compound 1 µM, first compound 0.0316 µM) of the same compound?
A: Its viability, T/C is 31.8%.

Q: What about the viability, T/C (second compound 1 µM, first compound 0.1 µM) of the same compound?
A: The viability, T/C was 37.9%.

Q: And the viability, T/C (second compound 1 µM, first compound 0.316 µM)?
A: Its viability, T/C is 35.9%.

Q: And the viability, T/C (second compound 1 µM, first compound 1 µM)?
A: The viability, T/C was 41.5%.

Q: What about the viability, T/C (second compound 1 µM, first compound 3.16 µM) of the same compound?
A: The viability, T/C was 31.3%.

Q: What about the viability, T/C (second compound 1 µM, first compound 10 µM) of the same compound?
A: Its viability, T/C is 26%.

Q: And the viability, T/C (second compound 3.16 µM, first compound 0.0316 µM)?
A: Its viability, T/C is 18.1%.

Q: What about the viability, T/C (second compound 3.16 µM, first compound 0.1 µM) of the same compound?
A: Its viability, T/C is 10.2%.

Q: And the viability, T/C (second compound 3.16 µM, first compound 0.316 µM)?
A: The viability, T/C was 21%.

Q: And the viability, T/C (second compound 3.16 µM, first compound 1 µM)?
A: Its viability, T/C is 18.6%.

Q: What about the viability, T/C (second compound 3.16 µM, first compound 3.16 µM) of the same compound?
A: Its viability, T/C is 17.3%.

Q: What about the viability, T/C (second compound 3.16 µM, first compound 10 µM) of the same compound?
A: The viability, T/C was 5.09%.

Q: What about the viability, T/C (second compound 10 µM, first compound 0.0316 µM) of the same compound?
A: Its viability, T/C is 0.26%.

Q: What about the viability, T/C (second compound 10 µM, first compound 0.1 µM) of the same compound?
A: The viability, T/C was 0.15%.

Q: And the viability, T/C (second compound 10 µM, first compound 0.316 µM)?
A: Its viability, T/C is 0.17%.

Q: What about the viability, T/C (second compound 10 µM, first compound 1 µM) of the same compound?
A: The viability, T/C was 0.18%.

Q: And the viability, T/C (second compound 10 µM, first compound 3.16 µM)?
A: Its viability, T/C is 0.2%.

Q: What about the viability, T/C (second compound 10 µM, first compound 10 µM) of the same compound?
A: Its viability, T/C is 0.21%.

Q: How did the viability, T/C (compound 0.0316 µM) turn out when CC1COCCN1c1cc(C2(O)CC3CCC(C2)O3)c2cnn(-c3ccn[nH]3)c2n1 (stereo not drawn) was run?
A: The viability, T/C was 85.4% and 89.4%.

Q: And the viability, T/C (compound 0.1 µM)?
A: The viability, T/C was 58.9% and 54.2%.

Q: What about the viability, T/C (compound 0.316 µM) of the same compound?
A: The viability, T/C was 49.8% and 43.1%.

Q: What about the viability, T/C (compound 1 µM) of the same compound?
A: Its viability, T/C is 29.2% and 27%.

Q: And the viability, T/C (compound 3.16 µM)?
A: Its viability, T/C is 26.7% and 20.5%.

Q: What about the viability, T/C (compound 10 µM) of the same compound?
A: Its viability, T/C is 9.56% and 9.97%.

Q: What about the IC50 (curve of compound) of the same compound?
A: The IC50 was 0.259 µM and 0.174 µM.
